Each compound was assayed on MAPT 3R mRNA (assay: RT-qPCR Assay to Quantify MAPT 3R mRNA in Cells). Settings: cells incubated with compound 24 h; 7-point concentration curve; MAPT minigene 3R RT-qPCR with GAPDH assay; EC2X interpolated from dose response curve.
Format: cell-based
Parameters: key to EC2X: An EC2X value ≥3000 nM is indicated by “inactive.”; An EC2X value between >1500 nM and ≤3000 nM is indicated by one star (*); An EC2X value between >1000 nM and ≤1500 nM is indicated by two stars (**); An EC2X value between >500 nM and ≤1000 nM is indicated by three stars (***); An EC2X value between >50 nM and ≤500 nM is indicated by four stars (****); An EC2X value ≤50 nM is indicated by five stars (*****)
Experimental: RT-qPCR Assay to Quantify MAPT 3R mRNA in Cells
Test compounds were serially diluted 3.16-fold in 100% DMSO to generate a 7-point concentration curve. Aliquots of 0.5 μL of diluted compounds were transferred to a 96-well flat bottom plate by a liquid handler. An aliquot of 0.5 μL DMSO was also transferred to separate wells and used as controls. Duplicate samples were set up for each compound concentration and for the DMSO control.
Cells were thawed and incubated in cell culture media (DMEM, 10% FBS, and 1% antibiotic cocktail) for 72 h. Cells were trypsinized, counted, and re-suspended to a concentration of 200,000 cells/mL in cell culture media. A 100 μL aliquot of the cell suspensions were plated at 20,000 cells per well in the compound containing 96 well microtiter plate and incubated for in a cell culture incubator (37° C., 5% CO2, 100% relative humidity).
After 24 h, media was aspirated from the cells and 20 μL of the RCL2 lysis buffer (10 mM Tris-HCL pH 7.4, 150 mM NaCl, 0.33% IGEPAL® CA-630) was added to each well and incubated at RT for 1 min. Chilled nuclease free water (140 μL per well) was added and the plates were immediately transferred on ice. After 1 min on ice, plates were frozen at −80° C. overnight.
Preparation of RT-qPCR Reaction Mixture:
An aliquot of 4 μL/well of the cell lysates was transferred using the liquid handler to the Armadillo 384-Well PCR plate containing 6 μL/well of the RT-qPCR reaction mixture that was prepared as detailed above. The plates were then sealed with MicroAmp™ Optical Adhesive Film followed by spinning down for 1 min and placed in the CFX384 thermocycler (BioRad).
The RT-qPCR was carried out at the following temperatures for the indicated time: • Step 1: 48° C. (30 min) • Step 2: 95° C. (10 min) • Step 3: 95° C. (15 sec) • Step 4: 60° C. (1 min); then, repeated Steps 3 and 4 for a total of 40 cycles.
The percent exon 4 skipping was calculated for each dose of compound treatment using Equations 1 and 2.
Data were fit to a dose response curve and the EC2X was interpolated using XLfit® statistical and curve fitting package.
An EC2X value between >1000 nM and ≤1500 nM is indicated by two stars (**). An EC2X value between >500 nM and ≤1000 nM is indicated by three stars (***). An EC2X value between >50 nM and ≤500 nM is indicated by four stars (****). An EC2X value ≤50 nM is indicated by five stars (*****).
With C[C@H](N)Cc1sc2c(NCc3ccco3)cc(Cl)nc2c1C#N [Cpd 109, 2-[(2S)-2-aminopropyl]-5-chloro-7-{[(furan-2-yl)methyl]amino}thieno[3,2-b]pyridine-3-carbonitrile] the EC (2-fold increase) was ≤ 0.05 µM.
Cc1c(C[C@H](C)N)sc2c(NCc3ccco3)ccnc12 [Cpd 34, 2-[(2S)-2-aminopropyl]-N-[(furan-2-yl)methyl]-3-methylthieno[3,2-b]pyridin-7-amine] showed an EC (2-fold increase) of 0.05 to 0.5 µM.
Cc1c(C[C@H](C)N)sc2c(NCc3ccco3)cc(Cl)nc12 [Cpd 18, 2-[(2S)-2-aminopropyl]-5-chloro-N-[(furan-2-yl)methyl]-3-methylthieno[3,2-b]pyridin-7-amine] was tested, and the EC (2-fold increase) was ≤ 0.05 µM.
CS(=O)(=O)C[C@H](N)Cc1sc2c(NCc3ccco3)cc(Cl)nc2c1Br [Cpd 117, 2-[(2R)-2-amino-3-(methanesulfonyl)propyl]-3-bromo-5-chloro-N-[(furan-2-yl)methyl]thieno[3,2-b]pyridin-7-amine] gave an EC (2-fold increase) of 0.05 to 0.5 µM.
Cc1c(C[C@H](C)N)sc2c(NCc3nccs3)cc(Cl)nc12 [Cpd 57, 2-[(2S)-2-aminopropyl]-5-chloro-3-methyl-N-[(1,3-thiazol-2-yl)methyl]thieno[3,2-b]pyridin-7-amine] was tested, and the EC (2-fold increase) was ≤ 0.05 µM.
For C#C[C@H](N)Cc1sc2c(NCc3ccco3)cc(Cl)nc2c1C [Cpd 123, 2-[(2R)-2-aminobut-3-yn-1-yl]-3-methyl-5-chloro-N-[(furan-2-yl)methyl]thieno[3,2-b]pyridin-7-amine], the EC (2-fold increase) was ≤ 0.05 µM.
In the case of C[C@H](N)Cc1sc2c(NCc3cccs3)cc(Cl)nc2c1Br [Cpd 53, 2-[(2S)-2-aminopropyl]-3-bromo-5-chloro-N-[(thiophen-2-yl)methyl]thieno[3,2-b]pyridin-7-amine], the EC (2-fold increase) is reported as ≤ 0.05 µM.
Cc1c(C[C@@H](N)CC#N)sc2c(NCc3cccs3)cc(Cl)nc12 [Cpd 105, (3S)-3-amino-4-(5-chloro-3-methyl-7-{[(thiophen-2-yl)methyl]amino}thieno[3,2-b]pyridin-2-yl)butanenitrile] showed an EC (2-fold increase) of 0.05 to 0.5 µM.
Cc1c(C[C@H](C)N)sc2c(NCc3ccccc3F)cc(Cl)nc12 [Cpd 29, 2-[(2S)-2-aminopropyl]-5-chloro-N-[(2-fluorophenyl)methyl]-3-methylthieno[3,2-b]pyridin-7-amine] was tested, and the EC (2-fold increase) was ≤ 0.05 µM.
CC[C@H](N)Cc1sc2c(NCc3cccs3)cc(Cl)nc2c1Br [Cpd 73, 2-[(2S)-2-aminobutyl]-3-bromo-5-chloro-N-[(thiophen-2-yl)methyl]thieno[3,2-b]pyridin-7-amine] was tested, and the EC (2-fold increase) was ≤ 0.05 µM.
With Cc1c(C[C@@H](N)C(=O)O)sc2c(NCc3ccco3)cc(Cl)nc12 [Cpd 115, 3-(5-chloro-7-{[(furan-2-yl)methyl]amino}-3-methylthieno[3,2-b]pyridin-2-yl)-D-alanine] the EC (2-fold increase) was ≤ 0.05 µM.
With C[C@H](N)C(F)c1sc2c(NCc3cccs3)cc(Cl)nc2c1Br (stereo partly drawn) [Cpd 158, 2-[(2S)-2-amino-1-fluoropropyl]-3-bromo-5-chloro-N-[(thiophen-2-yl)methyl]thieno[3,2-b]pyridin-7-amine] the EC (2-fold increase) was ≤ 0.05 µM.
Work on N[C@H](CF)Cc1sc2c(NCc3cccs3)cc(Cl)nc2c1Br [Cpd 63, 2-[(2S)-2-amino-3-fluoropropyl]-3-bromo-5-chloro-N-[(thiophen-2-yl)methyl]thieno[3,2-b]pyridin-7-amine] yielded an EC (2-fold increase) of 1 to 1.5 µM.
CSC[C@H](N)Cc1sc2c(NCc3ccco3)cc(Cl)nc2c1Br [Cpd 118, 2-[(2R)-2-amino-3-(methylsulfanyl)propyl]-3-bromo-5-chloro-N-[(furan-2-yl)methyl]thieno[3,2-b]pyridin-7-amine] was tested, and the EC (2-fold increase) was ≤ 0.05 µM.
With C[C@H](N)Cc1cc2nc(Cl)cc(NCc3ccco3)c2s1 [Cpd 16, 2-[(2S)-2-aminopropyl]-5-chloro-N-[(furan-2-yl)methyl]thieno[3,2-b]pyridin-7-amine] the EC (2-fold increase) was 0.05 to 0.5 µM.
In the case of N[C@@H](CO)Cc1sc2c(NCc3ccco3)cc(Cl)nc2c1Cl [Cpd 39, (2R)-2-amino-3-(3,5-dichloro-7-{[(furan-2-yl)methyl]amino}thieno[3,2-b]pyridin-2-yl)propan-1-ol], the EC (2-fold increase) is reported as 0.05 to 0.5 µM.
N[C@H](Cc1sc2c(NCc3ccco3)cc(Cl)nc2c1Cl)C(=O)Nc1ccccc1 [Cpd 122, 3-(3,5-dichloro-7-{[(furan-2-yl)methyl]amino}thieno[3,2-b]pyridin-2-yl)-N-phenyl-D-alaninamide] was tested, and the EC (2-fold increase) was 0.05 to 0.5 µM.
Cc1c(C[C@H](C)N)sc2c(NCc3cccs3)cc(C#N)nc12 [Cpd 54, 2-[(2S)-2-aminopropyl]-3-methyl-7-{[(thiophen-2-yl)methyl]amino}thieno[3,2-b]pyridine-5-carbonitrile] was tested, and the EC (2-fold increase) was 0.05 to 0.5 µM.
In the case of CC[C@H](N)Cc1sc2c(NCc3cccs3)cc(Cl)nc2c1Cl [Cpd 83, 2-[(2S)-2-aminobutyl]-3,5-dichloro-N-[(thiophen-2-yl)methyl]thieno[3,2-b]pyridin-7-amine], the EC (2-fold increase) is reported as ≤ 0.05 µM.
With CN[C@@H](C)Cc1sc2c(NCc3ccco3)cc(Cl)nc2c1C [Cpd 42, 5-chloro-N-[(furan-2-yl)methyl]-3-methyl-2-[(2S)-2-(methylamino)propyl]thieno[3,2-b]pyridin-7-amine] the EC (2-fold increase) was 0.5 to 1 µM.
Cc1c(C[C@@H](N)[C@H](C)F)sc2c(NCc3nccs3)cc(Cl)nc12 [Cpd 128, 2-[(2R,3S)-2-amino-3-fluorobutyl]-5-chloro-3-methyl-N-[(1,3-thiazol-2-yl)methyl]thieno[3,2-b]pyridin-7-amine] was tested, and the EC (2-fold increase) was ≤ 0.05 µM.
For COC[C@H](N)Cc1sc2c(NCc3ccco3)cc(Cl)nc2c1Cl [Cpd 40, 2-[(2R)-2-amino-3-methoxypropyl]-3,5-dichloro-N-[(furan-2-yl)methyl]thieno[3,2-b]pyridin-7-amine], the EC (2-fold increase) was ≤ 0.05 µM.
Cc1c([C@@H](C)[C@H](C)N)sc2c(NCc3ccco3)cc(Cl)nc12 [Cpd 151, 2-[(2S,3S)-3-aminobutan-2-yl]-5-chloro-N-[(furan-2-yl)methyl]-3-methylthieno[3,2-b]pyridin-7-amine] was tested, and the EC2X was “inactive”.
N[C@@H](CCF)Cc1sc2c(NCc3ccco3)cc(Cl)nc2c1Br [Cpd 97, 2-[(2S)-2-amino-4-fluorobutyl]-3-bromo-5-chloro-N-[(furan-2-yl)methyl]thieno[3,2-b]pyridin-7-amine] was tested, and the EC (2-fold increase) was ≤ 0.05 µM.
With CSC[C@H](N)Cc1sc2c(NCc3ccco3)cc(Cl)nc2c1Cl [Cpd 114, 2-[(2R)-2-amino-3-(methylsulfanyl)propyl]-3,5-dichloro-N-[(furan-2-yl)methyl]thieno[3,2-b]pyridin-7-amine] the EC (2-fold increase) was ≤ 0.05 µM.
For Cc1c(C[C@@H](N)CS(C)(=O)=O)sc2c(NCc3ccco3)cc(Cl)nc12 [Cpd 108, 2-[(2R)-2-amino-3-(methanesulfonyl)propyl]-5-chloro-N-[(furan-2-yl)methyl]-3-methylthieno[3,2-b]pyridin-7-amine], the EC (2-fold increase) was 0.05 to 0.5 µM.
For N[C@@H](CF)Cc1sc2c(NCc3cccs3)cc(Cl)nc2c1Br [Cpd 76, 2-[(2R)-2-amino-3-fluoropropyl]-3-bromo-5-chloro-N-[(thiophen-2-yl)methyl]thieno[3,2-b]pyridin-7-amine], the EC (2-fold increase) was ≤ 0.05 µM.

— patent publication US20240390338A1, “METHODS FOR TREATING NEUROGENERATIVE DISEASES” (PTC THERAPEUTICS, INC., priority 2021, published 2024)
